Measured values as given in ChEMBL document CHEMBL1145633, “Inhibitors of the tyrosine kinase EphB4. Part 1: Structure-based design and optimization of a series of 2,4-bis-anilinopyrimidines” (Bioorg Med Chem Lett, 2008).
≈ marks a conversion by molar mass, not a printed value.

Legend:
Ephrin type-B receptor 4 = biological target: T1, Ephrin type-B receptor 4 (Homo sapiens, UniProt P54760); assay: Inhibition of EphB4
T1 sequence (P54760 whole entry): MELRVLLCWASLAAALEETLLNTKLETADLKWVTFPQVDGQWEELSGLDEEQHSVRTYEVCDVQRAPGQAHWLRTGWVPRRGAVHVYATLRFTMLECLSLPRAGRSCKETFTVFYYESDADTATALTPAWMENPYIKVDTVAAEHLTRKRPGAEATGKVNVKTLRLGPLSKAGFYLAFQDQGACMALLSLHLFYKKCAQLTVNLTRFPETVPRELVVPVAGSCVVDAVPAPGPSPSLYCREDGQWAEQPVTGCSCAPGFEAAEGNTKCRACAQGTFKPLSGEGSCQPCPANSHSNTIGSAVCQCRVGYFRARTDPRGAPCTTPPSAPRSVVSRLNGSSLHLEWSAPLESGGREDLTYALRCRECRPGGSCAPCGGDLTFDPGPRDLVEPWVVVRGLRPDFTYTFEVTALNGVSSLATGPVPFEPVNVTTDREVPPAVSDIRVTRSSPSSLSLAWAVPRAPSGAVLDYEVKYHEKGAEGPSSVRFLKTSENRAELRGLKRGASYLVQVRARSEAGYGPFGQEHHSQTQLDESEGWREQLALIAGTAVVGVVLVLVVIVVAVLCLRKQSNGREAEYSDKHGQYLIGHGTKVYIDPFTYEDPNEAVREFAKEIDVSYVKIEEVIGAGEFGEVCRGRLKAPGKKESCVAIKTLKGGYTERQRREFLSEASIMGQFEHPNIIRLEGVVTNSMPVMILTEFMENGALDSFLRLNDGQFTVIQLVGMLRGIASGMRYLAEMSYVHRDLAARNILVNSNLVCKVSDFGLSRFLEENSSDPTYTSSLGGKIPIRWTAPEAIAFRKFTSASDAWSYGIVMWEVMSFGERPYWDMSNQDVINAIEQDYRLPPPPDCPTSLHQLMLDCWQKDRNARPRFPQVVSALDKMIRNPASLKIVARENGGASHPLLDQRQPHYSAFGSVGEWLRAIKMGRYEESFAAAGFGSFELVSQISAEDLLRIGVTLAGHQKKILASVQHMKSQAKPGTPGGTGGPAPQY

[1] = Lipophilicity, Log D of compound at pH 7.4; assay type: physicochemical; conditions: buffer
Ephrin type-B receptor 2 = biological target: T2, Ephrin type-B receptor 2 (Homo sapiens, UniProt P29323); assay: Inhibition of EphB2
T2 sequence (P29323 whole entry): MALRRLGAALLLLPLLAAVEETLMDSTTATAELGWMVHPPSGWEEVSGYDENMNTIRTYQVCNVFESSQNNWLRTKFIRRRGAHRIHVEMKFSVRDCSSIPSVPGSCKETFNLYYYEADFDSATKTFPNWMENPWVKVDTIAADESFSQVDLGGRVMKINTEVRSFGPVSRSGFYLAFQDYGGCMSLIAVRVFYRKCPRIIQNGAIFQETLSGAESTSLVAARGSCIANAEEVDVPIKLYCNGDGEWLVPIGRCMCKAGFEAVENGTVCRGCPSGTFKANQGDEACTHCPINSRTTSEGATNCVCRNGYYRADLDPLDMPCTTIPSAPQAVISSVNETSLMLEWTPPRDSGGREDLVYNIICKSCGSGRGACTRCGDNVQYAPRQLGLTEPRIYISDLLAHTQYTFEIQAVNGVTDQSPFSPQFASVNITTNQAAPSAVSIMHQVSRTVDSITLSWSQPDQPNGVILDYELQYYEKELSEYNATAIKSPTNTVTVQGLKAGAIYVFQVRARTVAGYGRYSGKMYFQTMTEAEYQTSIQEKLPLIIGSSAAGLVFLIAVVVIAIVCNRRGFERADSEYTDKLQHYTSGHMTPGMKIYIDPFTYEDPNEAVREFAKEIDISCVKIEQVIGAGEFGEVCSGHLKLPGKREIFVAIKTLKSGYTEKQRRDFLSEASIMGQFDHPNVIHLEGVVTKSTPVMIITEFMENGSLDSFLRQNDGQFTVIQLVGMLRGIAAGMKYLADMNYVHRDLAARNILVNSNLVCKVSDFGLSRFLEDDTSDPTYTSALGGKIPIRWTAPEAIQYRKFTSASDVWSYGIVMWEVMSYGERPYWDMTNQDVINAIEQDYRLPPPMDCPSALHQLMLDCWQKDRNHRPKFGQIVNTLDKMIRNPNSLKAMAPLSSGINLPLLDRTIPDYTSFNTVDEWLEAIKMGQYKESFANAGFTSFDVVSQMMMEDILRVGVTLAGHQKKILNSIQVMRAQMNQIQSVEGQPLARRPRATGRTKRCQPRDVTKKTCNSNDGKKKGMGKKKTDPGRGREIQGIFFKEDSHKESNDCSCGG

[2] = biological target: Serine/threonine-protein kinase PLK1 (Homo sapiens, UniProt P53350); assay: Inhibition of PLK
[3] = biological target: T3, Serine/threonine-protein kinase Chk1 (Homo sapiens, UniProt O14757); assay: Inhibition of CHK1
T3 sequence (O14757 whole entry): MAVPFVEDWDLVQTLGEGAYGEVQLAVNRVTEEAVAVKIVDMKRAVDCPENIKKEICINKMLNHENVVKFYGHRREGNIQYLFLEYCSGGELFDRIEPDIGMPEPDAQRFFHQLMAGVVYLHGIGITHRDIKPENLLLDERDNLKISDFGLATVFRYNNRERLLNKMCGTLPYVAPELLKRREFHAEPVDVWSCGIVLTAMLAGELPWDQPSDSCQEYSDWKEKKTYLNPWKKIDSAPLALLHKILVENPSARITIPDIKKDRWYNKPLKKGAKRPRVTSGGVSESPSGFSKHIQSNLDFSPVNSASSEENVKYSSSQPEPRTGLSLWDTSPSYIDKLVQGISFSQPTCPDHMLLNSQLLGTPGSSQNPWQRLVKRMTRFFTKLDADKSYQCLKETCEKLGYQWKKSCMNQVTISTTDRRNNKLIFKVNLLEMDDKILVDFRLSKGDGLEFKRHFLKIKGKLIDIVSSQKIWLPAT

[4] = biological target: Vascular endothelial growth factor receptor 2 (Homo sapiens, UniProt P35968); assay: Inhibition of KDR
[5] = Inhibition of p38
[6] = Volume of distribution at steady state in Han Wistar rat at 5 umol/kg, po or 0.5 umol/kg, iv; assay type: ADME, organism-based; conditions: in vivo, read-out: Vdss
[7] = biological target: Insulin-like growth factor 1 receptor (Homo sapiens, UniProt P08069); assay: Inhibition of IGF
[8] = biological target: Cyclin-dependent kinase 2 (Homo sapiens, UniProt P24941); assay: Inhibition of CDK2
[9] = Inhibition of PKA
Focal adhesion kinase 1 = Focal adhesion kinase 1 (Homo sapiens, UniProt Q05397); assay: Inhibition of FAK
[10] = Inhibition of JNK
[11] = Half life in Han Wistar rat at 5 umol/kg, po; assay type: ADME, organism-based; conditions: in vivo
[12] = Inhibition of FGF
[13] = Clearance in Han Wistar rat at 5 umol/kg, po or 0.5 umol/kg, iv; assay type: ADME, organism-based; conditions: in vivo
[14] = biological target: T4, Tyrosine-protein kinase JAK3 (Homo sapiens, UniProt P52333); assay: Inhibition of JAK3
T4 sequence (P52333 whole entry): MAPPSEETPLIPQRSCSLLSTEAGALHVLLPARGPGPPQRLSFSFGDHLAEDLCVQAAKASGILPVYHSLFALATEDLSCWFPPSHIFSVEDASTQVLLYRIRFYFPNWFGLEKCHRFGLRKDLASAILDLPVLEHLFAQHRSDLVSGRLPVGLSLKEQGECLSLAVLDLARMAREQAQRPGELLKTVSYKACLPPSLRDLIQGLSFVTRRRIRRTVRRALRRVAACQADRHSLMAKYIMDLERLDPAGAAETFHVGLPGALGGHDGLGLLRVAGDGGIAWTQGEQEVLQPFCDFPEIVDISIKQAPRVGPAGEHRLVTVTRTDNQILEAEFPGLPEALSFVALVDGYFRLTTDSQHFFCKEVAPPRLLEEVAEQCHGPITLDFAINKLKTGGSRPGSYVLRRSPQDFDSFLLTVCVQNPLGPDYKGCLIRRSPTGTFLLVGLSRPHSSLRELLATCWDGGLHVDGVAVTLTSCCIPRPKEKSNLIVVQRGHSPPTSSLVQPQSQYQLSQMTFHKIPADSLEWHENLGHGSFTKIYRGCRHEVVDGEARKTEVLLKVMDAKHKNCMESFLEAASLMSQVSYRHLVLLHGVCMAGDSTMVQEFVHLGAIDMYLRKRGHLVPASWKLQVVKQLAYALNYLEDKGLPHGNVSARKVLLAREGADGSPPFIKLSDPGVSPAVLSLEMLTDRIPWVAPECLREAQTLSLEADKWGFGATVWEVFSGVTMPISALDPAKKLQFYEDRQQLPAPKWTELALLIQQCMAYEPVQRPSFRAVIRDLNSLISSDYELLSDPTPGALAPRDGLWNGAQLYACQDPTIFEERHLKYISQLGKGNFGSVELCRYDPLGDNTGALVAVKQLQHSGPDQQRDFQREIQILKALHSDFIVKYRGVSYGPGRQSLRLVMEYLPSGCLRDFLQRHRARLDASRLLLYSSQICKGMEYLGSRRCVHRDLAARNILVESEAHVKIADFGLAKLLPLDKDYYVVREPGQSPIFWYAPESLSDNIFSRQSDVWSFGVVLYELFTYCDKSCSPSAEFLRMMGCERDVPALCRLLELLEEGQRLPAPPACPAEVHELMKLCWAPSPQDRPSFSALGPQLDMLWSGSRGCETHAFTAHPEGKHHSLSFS

[15] = biological target: T5, Tyrosine-protein kinase ZAP-70 (Homo sapiens, UniProt P43403); assay: Inhibition of ZAP70
T5 sequence (P43403 whole entry): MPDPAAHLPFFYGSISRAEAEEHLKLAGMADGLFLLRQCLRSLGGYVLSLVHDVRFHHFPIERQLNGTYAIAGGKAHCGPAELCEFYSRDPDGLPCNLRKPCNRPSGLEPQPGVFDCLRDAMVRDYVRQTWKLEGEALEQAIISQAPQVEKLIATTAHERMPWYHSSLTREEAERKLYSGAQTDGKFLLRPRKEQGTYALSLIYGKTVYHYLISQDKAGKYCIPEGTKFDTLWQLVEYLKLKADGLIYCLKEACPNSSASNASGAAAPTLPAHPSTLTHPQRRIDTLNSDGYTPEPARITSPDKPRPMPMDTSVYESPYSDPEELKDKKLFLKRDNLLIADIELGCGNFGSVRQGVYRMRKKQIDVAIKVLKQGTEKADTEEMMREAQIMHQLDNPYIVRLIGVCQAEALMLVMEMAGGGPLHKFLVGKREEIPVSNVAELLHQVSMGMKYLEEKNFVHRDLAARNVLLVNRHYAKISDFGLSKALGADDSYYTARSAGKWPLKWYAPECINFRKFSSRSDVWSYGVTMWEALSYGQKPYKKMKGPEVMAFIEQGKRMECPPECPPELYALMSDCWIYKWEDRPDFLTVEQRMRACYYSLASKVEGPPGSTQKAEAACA

[16] = biological target: Proto-oncogene tyrosine-protein kinase Src (Homo sapiens, UniProt P12931); assay: Inhibition of Src
[17] = Bioavailability in Han Wistar rat at 5 umol/kg, po; assay type: ADME, organism-based; conditions: in vivo
[18] = AUC in Han Wistar rat at 5 umol/kg, po; assay type: ADME, organism-based; conditions: plasma
[19] = Aqueous solubility of compound at pH 7.4; assay type: physicochemical
[20] = biological target: Tyrosine-protein kinase CSK (Homo sapiens, UniProt P41240); assay: Inhibition of CSK
Plasma = assay: Protein binding in Han Wistar rat plasma assessed as free drug; assay type: ADME, cell-free

Chain of Focal adhesion kinase 1 (Q05397 whole entry): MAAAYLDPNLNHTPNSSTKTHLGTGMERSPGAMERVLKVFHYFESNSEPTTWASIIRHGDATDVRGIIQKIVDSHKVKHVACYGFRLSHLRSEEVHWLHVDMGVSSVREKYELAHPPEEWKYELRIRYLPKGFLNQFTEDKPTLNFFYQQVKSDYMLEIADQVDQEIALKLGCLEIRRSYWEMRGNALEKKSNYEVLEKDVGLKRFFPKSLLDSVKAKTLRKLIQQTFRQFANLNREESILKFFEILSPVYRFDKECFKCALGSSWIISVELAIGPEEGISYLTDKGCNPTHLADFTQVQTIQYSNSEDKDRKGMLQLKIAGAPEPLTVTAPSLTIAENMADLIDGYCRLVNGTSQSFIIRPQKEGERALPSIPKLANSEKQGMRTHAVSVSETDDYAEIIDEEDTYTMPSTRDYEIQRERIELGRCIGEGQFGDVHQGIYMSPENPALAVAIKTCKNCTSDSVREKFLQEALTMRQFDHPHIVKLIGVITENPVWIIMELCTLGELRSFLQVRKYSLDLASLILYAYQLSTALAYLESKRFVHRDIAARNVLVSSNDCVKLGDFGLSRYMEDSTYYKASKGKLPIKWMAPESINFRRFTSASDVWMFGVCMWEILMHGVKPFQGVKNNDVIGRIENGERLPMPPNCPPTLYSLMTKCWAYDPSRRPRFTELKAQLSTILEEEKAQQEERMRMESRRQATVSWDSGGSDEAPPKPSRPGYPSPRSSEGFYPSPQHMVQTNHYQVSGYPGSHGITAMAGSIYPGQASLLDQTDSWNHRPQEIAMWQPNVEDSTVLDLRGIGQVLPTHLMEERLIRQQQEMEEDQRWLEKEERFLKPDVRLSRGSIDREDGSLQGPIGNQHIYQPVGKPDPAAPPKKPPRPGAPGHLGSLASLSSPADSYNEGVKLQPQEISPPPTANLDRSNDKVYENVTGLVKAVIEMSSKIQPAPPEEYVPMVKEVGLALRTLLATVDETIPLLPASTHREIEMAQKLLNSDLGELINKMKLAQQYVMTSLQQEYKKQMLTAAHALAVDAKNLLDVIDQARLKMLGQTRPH
Chain of Tyrosine-protein kinase CSK (P41240 whole entry): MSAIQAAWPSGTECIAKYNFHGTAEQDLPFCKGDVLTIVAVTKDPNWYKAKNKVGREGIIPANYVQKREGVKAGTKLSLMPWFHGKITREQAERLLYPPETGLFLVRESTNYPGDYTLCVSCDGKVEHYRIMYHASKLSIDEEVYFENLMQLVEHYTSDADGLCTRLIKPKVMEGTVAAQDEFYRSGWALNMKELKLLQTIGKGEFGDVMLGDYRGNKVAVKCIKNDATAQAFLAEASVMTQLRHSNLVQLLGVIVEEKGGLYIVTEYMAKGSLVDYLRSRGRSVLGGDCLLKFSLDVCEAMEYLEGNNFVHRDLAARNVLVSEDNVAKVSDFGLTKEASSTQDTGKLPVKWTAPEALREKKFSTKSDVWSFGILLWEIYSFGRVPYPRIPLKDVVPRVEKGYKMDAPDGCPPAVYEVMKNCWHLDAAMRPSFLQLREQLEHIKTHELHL
Chain of Proto-oncogene tyrosine-protein kinase Src (P12931 2-536 limits assumed): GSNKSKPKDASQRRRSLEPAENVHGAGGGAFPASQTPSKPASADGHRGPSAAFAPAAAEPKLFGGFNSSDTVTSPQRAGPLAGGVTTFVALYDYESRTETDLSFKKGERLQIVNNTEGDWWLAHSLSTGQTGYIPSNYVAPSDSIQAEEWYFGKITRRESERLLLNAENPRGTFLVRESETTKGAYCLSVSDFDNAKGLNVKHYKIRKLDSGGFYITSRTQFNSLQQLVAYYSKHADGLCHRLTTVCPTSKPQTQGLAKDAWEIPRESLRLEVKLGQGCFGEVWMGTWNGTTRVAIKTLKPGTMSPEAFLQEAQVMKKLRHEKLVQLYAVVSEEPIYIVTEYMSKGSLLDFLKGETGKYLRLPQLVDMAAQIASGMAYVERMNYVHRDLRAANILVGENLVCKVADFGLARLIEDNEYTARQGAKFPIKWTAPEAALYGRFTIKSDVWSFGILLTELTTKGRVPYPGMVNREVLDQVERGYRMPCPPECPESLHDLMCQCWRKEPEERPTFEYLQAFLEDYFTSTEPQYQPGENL
Chain of Insulin-like growth factor 1 receptor (P08069 31-736 limits assumed): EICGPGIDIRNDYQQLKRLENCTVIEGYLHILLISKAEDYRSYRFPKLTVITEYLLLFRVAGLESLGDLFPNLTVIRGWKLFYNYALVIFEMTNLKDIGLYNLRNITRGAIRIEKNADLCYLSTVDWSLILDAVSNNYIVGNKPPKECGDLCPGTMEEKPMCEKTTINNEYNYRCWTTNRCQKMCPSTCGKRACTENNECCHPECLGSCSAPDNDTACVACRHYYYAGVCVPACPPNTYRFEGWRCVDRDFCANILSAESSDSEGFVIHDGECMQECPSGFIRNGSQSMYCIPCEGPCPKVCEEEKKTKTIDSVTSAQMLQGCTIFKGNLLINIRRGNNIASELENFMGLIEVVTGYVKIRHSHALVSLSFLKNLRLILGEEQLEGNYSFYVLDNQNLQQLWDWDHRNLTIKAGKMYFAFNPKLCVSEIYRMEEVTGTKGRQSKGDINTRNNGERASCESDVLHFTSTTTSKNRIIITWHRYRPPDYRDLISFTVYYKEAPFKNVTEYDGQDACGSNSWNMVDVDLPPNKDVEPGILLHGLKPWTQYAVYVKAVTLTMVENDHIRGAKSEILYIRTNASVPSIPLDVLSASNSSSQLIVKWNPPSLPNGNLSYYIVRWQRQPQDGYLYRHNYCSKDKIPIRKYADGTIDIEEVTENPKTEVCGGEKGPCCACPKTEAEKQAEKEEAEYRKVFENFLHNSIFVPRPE
Chain of Insulin-like growth factor 1 receptor (P08069 741-1367 limits assumed): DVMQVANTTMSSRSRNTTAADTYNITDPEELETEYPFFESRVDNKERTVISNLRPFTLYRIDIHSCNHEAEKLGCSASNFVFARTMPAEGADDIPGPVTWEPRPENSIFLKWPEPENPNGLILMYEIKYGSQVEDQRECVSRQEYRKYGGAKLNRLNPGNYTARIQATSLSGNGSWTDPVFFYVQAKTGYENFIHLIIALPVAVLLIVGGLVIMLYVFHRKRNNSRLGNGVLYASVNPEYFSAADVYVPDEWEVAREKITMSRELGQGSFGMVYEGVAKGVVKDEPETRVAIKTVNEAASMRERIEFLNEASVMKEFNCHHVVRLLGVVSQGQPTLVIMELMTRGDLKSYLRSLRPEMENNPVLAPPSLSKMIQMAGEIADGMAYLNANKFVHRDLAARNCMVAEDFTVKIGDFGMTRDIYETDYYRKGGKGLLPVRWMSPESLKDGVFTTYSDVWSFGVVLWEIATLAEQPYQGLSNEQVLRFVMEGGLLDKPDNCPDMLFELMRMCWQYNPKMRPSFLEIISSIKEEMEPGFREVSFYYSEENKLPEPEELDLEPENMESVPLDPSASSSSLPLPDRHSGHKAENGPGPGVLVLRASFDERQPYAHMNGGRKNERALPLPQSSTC
Chain of Serine/threonine-protein kinase PLK1 (P53350 whole entry): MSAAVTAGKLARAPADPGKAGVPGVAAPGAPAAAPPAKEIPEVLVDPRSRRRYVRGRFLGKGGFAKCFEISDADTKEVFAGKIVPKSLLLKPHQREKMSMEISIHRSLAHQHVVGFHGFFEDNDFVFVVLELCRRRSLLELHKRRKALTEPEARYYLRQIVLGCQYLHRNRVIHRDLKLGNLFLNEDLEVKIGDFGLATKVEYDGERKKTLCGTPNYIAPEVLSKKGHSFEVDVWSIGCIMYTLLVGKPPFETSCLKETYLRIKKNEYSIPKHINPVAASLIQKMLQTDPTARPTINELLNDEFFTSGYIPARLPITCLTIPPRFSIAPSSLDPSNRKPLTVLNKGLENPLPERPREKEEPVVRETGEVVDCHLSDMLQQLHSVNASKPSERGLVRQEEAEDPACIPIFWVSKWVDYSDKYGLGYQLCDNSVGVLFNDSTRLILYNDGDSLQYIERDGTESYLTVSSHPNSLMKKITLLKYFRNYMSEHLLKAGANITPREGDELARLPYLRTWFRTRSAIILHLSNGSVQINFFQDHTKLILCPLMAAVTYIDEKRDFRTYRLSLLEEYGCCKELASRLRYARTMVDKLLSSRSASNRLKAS

Cc1cccc(Nc2nccc(Nc3c(Cl)ccc4c3OCO4)n2)c1
IC50 (Ephrin type-B receptor 4): 0.46 µM

N#Cc1cccc(Nc2nccc(Nc3c(Cl)ccc4c3OCO4)n2)c1
IC50 (Ephrin type-B receptor 4): 0.55 µM

COc1cc(Nc2ncnc(Nc3c(Cl)ccc4c3OCO4)n2)cc(OC)c1OC
IC50 (Ephrin type-B receptor 4): 2.96 µM

COc1cc(Nc2cc(Nc3c(Cl)ccc4c3OCO4)ncn2)cc(OC)c1OC
IC50 (Ephrin type-B receptor 4): 2.54 µM

COc1ccccc1Nc1nccc(Nc2c(Cl)ccc3c2OCO3)n1
IC50 (Ephrin type-B receptor 4): 3.88 µM

Cc1ccc(Nc2nccc(Nc3c(Cl)ccc4c3OCO4)n2)cc1
IC50 (Ephrin type-B receptor 4): 1.6 µM

N#Cc1ccc(Nc2nccc(Nc3c(Cl)ccc4c3OCO4)n2)cc1
IC50 (Ephrin type-B receptor 4): 1.25 µM

NS(=O)(=O)c1ccc(Nc2nccc(Nc3c(Cl)ccc4c3OCO4)n2)cc1
IC50 (Ephrin type-B receptor 4): 0.3 µM

Fc1cccc(Nc2nccc(Nc3c(Cl)ccc4c3OCO4)n2)c1
IC50 (Ephrin type-B receptor 4): 1.15 µM

Fc1ccccc1Nc1nccc(Nc2c(Cl)ccc3c2OCO3)n1
IC50 (Ephrin type-B receptor 4): 5 µM

CS(=O)(=O)c1cccc(Nc2nccc(Nc3c(Cl)ccc4c3OCO4)n2)c1
logD [1]: 3.13
IC50 (Ephrin type-B receptor 2): 0.05 µM
IC50 [2]: > 30 µM
IC50 [3]: > 30 µM
IC50 [4]: > 30 µM
IC50 [5]: 27.1 µM
Vd [6]: 0.5 L/kg
IC50 [7]: > 30 µM
IC50 [8]: 17.6 µM
IC50 [9]: > 30 µM
IC50 (Focal adhesion kinase 1): 19.7 µM
IC50 [10]: > 30 µM
half-life [11]: 5.3 h
IC50 [12]: > 30 µM
clearance [13]: 6.1 mL/min/kg
IC50 [14]: 20.5 µM
IC50 [15]: > 30 µM
IC50 [16]: < 0.1 µM
bioavailability [17]: 30%
AUC [18]: 4 µM·h
solubility [19]: 30 µM (≈ 12.6 µg/mL)
IC50 [20]: 10.7 µM
Fu (Plasma): 0.74%

Clc1ccc2c(c1Nc1ccnc(Nc3ccccc3)n1)OCO2
IC50 (Ephrin type-B receptor 4): 1.55 µM

Clc1ccc(Nc2nccc(Nc3c(Cl)ccc4c3OCO4)n2)cc1
IC50 (Ephrin type-B receptor 4): 6 µM
